Results published in patent US11260023B2, “Topical compositions containing rofecoxib and methods of making and using the same” (BRIORI BIOTECH, LLC, priority 2020, dated 2022).

Assays:
[1] = Solubility of rofecoxib in solvent systems containing one solvent, UV spectrophotometry; format: physicochemical
Protocol: The solubility of rofecoxib was tested in a variety of solvent systems by UV spectrophotometry. A UV spectrophotometry method of evaluating the solubility of rofecoxib was used to determine the solubility of rofecoxib in various solvent systems. Erk et al. describes this method and is incorporated by reference herein in its entirety: Erk et al. Pharmazie. 2004 June; 59(6):453-6.
100 mg of rofecoxib was dissolved in 100 ml of methanol. Dilutions of the stock solution were made into methanol to give a final rofecoxib concentration of 5 μg/ml, 10 μg/ml, 20 μg/ml, 25 μg/ml, 30 μg/ml, 35 μg/ml, 40 μg/ml, 45 μg/ml, and 50 μg/ml. A UV spectrophotometer was utilized to read the absorbance of the samples 279.1 nm. Using Beer's law, a value for the extinction coefficient for rofecoxib was obtained. The value of the extinction coefficient of rofecoxib was determined to be 29.06 and was utilized in future experiments to determine the concentration of rofecoxib in various solvent systems.
100 mg of rofecoxib was added to 1 gram of each solvent. […] The mixtures of rofecoxib and solvents were vortexed for one minute and left at room temperature for one hour. The mixture was vortexed a second time and then left at room temperature overnight. The next morning the samples were vortexed a third time and then centrifuged at 12 k for 5 minutes. The excipient/rofecoxib mixture was transferred to a new tube being careful to not take any of the pellet. Serial dilutions of the rofecoxib solvent solutions were made (1:100 v:v), (1:1000 v/v), and (1:2000 v/v). Solvents without rofecoxib were diluted with methanol and used to blank a Beckman DU-7400 spectrophotometer. The absorbance of the samples was determined at a wavelength of 279.1 nm. The concentration of rofecoxib dissolved in the solvent was calculated using Beer's Law. Concentrations were converted from units of mg/mL to units of mg/g according to the following procedure:
(a) The volume of 1 g of solvent times the calculated mg/ml rofecoxib equals total mg of rofecoxib in 1 g of solvent. e.g. 1 g of a solvent that has a density of 1.05 g/mL is 952 μL. A rofecoxib solution with a concentration of rofecoxib of […] contains 28.17 mg of rofecoxib in 952 μL of solvent.
(b) To calculate the total volume, a mg of rofecoxib is assumed to equal to 1 μl of volume. Add volume of the solvent to the total weight of rofecoxib. 28.17 mg+1000 mg of solvent=1028.17 mg.
(c) To calculate the w/w divide the mg of rofecoxib 28.71 mg by the total weight of rofecoxib with solvent 1028.71 mg and multiply times 1000 mg to get the w/w […]/1028.71 mg*1000 mg=28.62 mg/g of solvent.

[2] = Stability of rofecoxib by HPLC after storage for two weeks at 40° C. and 50° C.; format: physicochemical
Protocol: The stability of rofecoxib was assessed by HPLC after storage for two weeks at 40° C. and for two weeks at 50° C.

Structure (SMILES): CS(=O)(=O)c1ccc(C2=C(c3ccccc3)C(=O)OC2)cc1 [Rofecoxib]
- Solubility of Rofecoxib ([1]; in 2-Methylpentane-2,4-diol): 0.59 mg/g
- Solubility of Rofecoxib ([1]; in Acetone): 23.58 mg/g
- Solubility of Rofecoxib ([1]; in Benzyl Alcohol): 19.54 mg/g
- Solubility of Rofecoxib ([1]; in Diethyl sebacate): 1.3 mg/g
- Solubility of Rofecoxib ([1]; in Diethylene glycol monoethyl ether): 9.07 mg/g
- Solubility of Rofecoxib ([1]; in Diisopropyl adipate): 2.04 mg/g
- Solubility of Rofecoxib ([1]; in Dimethyl Isosorbide): 39.14 mg/g
- Solubility of Rofecoxib ([1]; in Dimethyl Sulfoxide): 143.6 mg/g
- Solubility of Rofecoxib ([1]; in Ethyl acetate): 5.5 mg/g
- Solubility of Rofecoxib ([1]; in Isopropyl tetradecanoate): 0.0017 mg/g
- Solubility of Rofecoxib ([1]; in N-methyl-2-pyrrolidone): 198 mg/g
- Solubility of Rofecoxib ([1]; in Oleic acid): 0.402 mg/g
- Solubility of Rofecoxib ([1]; in Polyethylene glycol-400 (PEG)): 13.14 mg/g
- Solubility of Rofecoxib ([1]; in Polysorbate 20 (PS20)): 9.18 mg/g
- Solubility of Rofecoxib ([1]; in Polysorbate 80 (PS80)): 9.71 mg/g
- Solubility of Rofecoxib ([1]; in Propylene Carbonate): 49.43 mg/g
- Solubility of Rofecoxib ([1]; in Propylene Glycol): 0.302 mg/g
- Solubility of Rofecoxib ([1]; in Propylene glycol diacetate): 6.93 mg/g
- Solubility of Rofecoxib ([1]; in alpha-Terpineol 95.0+ %): 0.313 mg/g
- Rofecoxib Concentration ([2]; Acetone, T = 0 weeks): 2.549 % w/w
- Rofecoxib Concentration ([2]; Acetone, T = 2 weeks 40° C. storage): 2.549 % w/w
- Rofecoxib Concentration ([2]; Acetone, T = 2 weeks 50° C. storage): 2.549 % w/w
- Rofecoxib Concentration ([2]; Benzyl alcohol, T = 0 weeks): 1.447 % w/w
- Rofecoxib Concentration ([2]; Benzyl alcohol, T = 2 weeks 40° C. storage): 1.474 % w/w
- Rofecoxib Concentration ([2]; Benzyl alcohol, T = 2 weeks 50° C. storage): 1.470 % w/w
- Rofecoxib Concentration ([2]; Diethylene glycol monoethyl ether, T = 0 weeks): 0.687 % w/w
- Rofecoxib Concentration ([2]; Diethylene glycol monoethyl ether, T = 2 weeks 40° C. storage): 0.672 % w/w
- Rofecoxib Concentration ([2]; Diethylene glycol monoethyl ether, T = 2 weeks 50° C. storage): 0.677 % w/w
- Rofecoxib Concentration ([2]; Dimethyl isosorbide, T = 0 weeks): 2.641 % w/w
- Rofecoxib Concentration ([2]; Dimethyl isosorbide, T = 2 weeks 40° C. storage): 2.515 % w/w
- Rofecoxib Concentration ([2]; Dimethyl isosorbide, T = 2 weeks 50° C. storage): 2.511 % w/w
- Rofecoxib Concentration ([2]; Ethyl acetate, T = 0 weeks): 0.465 % w/w
- Rofecoxib Concentration ([2]; Ethyl acetate, T = 2 weeks 40° C. storage): 0.479 % w/w
- Rofecoxib Concentration ([2]; Ethyl acetate, T = 2 weeks 50° C. storage): 0.476 % w/w
- Rofecoxib Concentration ([2]; N-methyl-2-pyrrolidone, T = 0 weeks): 5.046 % w/w
- Rofecoxib Concentration ([2]; N-methyl-2-pyrrolidone, T = 2 weeks 40° C. storage): 5.057 % w/w
- Rofecoxib Concentration ([2]; N-methyl-2-pyrrolidone, T = 2 weeks 50° C. storage): 5.055 % w/w
- Rofecoxib Concentration ([2]; PEG 400, T = 0 weeks): 1.013 % w/w
- Rofecoxib Concentration ([2]; PEG 400, T = 2 weeks 40° C. storage): 0.987 % w/w
- Rofecoxib Concentration ([2]; PEG 400, T = 2 weeks 50° C. storage): 0.993 % w/w
- Rofecoxib Concentration ([2]; Propylene Carbonate, T = 0 weeks): 3.471 % w/w
- Rofecoxib Concentration ([2]; Propylene Carbonate, T = 2 weeks 40° C. storage): 3.456 % w/w
- Rofecoxib Concentration ([2]; Propylene Carbonate, T = 2 weeks 50° C. storage): 3.463 % w/w
- Rofecoxib Concentration ([2]; Propylene Glycol Diacetate, T = 0 weeks): 0.519 % w/w
- Rofecoxib Concentration ([2]; Propylene Glycol Diacetate, T = 2 weeks 40° C. storage): 0.527 % w/w
- Rofecoxib Concentration ([2]; Propylene Glycol Diacetate, T = 2 weeks 50° C. storage): 0.520 % w/w
- solubility after storage ([2]; two weeks at 40° C. and 50° C., in the solvents in Table 12): remained soluble
